Our source for the IC50 and Toxicity values is ChEMBL document CHEMBL1125943, “Preparation of the geometric isomers of DDC, DDA, D4C and D4T as potential anti-HIV agents” (Bioorg Med Chem Lett, 1991).

Each structure is given as a SMILES string. Some results are limits rather than exact numbers.

Data set [1] concerns CCRF-CEM. The experiment in a line: The inhibitory dose against HIV in CEM cells was evaluated. To be noted: read-out: ID50 (the source's name). The data set is classed as functional, Homo sapiens.
The subject of data set [2] is CCRF-CEM. The experiment in a line: Compound was tested for cellular toxicity against HIV in CEM cells at concentration up to 100 uM; IA means inactive. The data set is classed as cell-based. The note with it: human.

Take `Nc1ccn([C@H]2CC[C@@H](CO)O2)c(=O)n1` (stereo in doubt; form 1) [ZALCITABINE]: the IC50 with CCRF-CEM [1] was less than 100 nM.
Consider `Nc1ccn([C@H]2CC[C@@H](CO)O2)c(=O)n1` (stereo in doubt; form 2) [ZALCITABINE], for which the IC50 with CCRF-CEM [1] was 40 nM.
With `Nc1ccn([C@@H]2C=C[C@H](CO)O2)c(=O)n1`, in the data set with CCRF-CEM [2], the Toxicity entry is on record as “Not Active”.
On to `Nc1ccn([C@@H]2CC[C@H](CO)O2)c(=O)n1`, for which the IC50 with CCRF-CEM [1] (Homo sapiens, CCRF-CEM) is 660 nM.
On to `Nc1ccn(C2CC[C@H](CO)O2)c(=O)n1` (single isomer, unassigned), for which the Toxicity result in the data set with CCRF-CEM [2] is “Not Active”.
`Nc1ncnc2c1ncn2[C@H]1CC[C@@H](CO)O1` (single isomer, unassigned): the Toxicity entry in the data set with CCRF-CEM [2] is “Not Active”.
Take `Cc1cn([C@@H]2C=C[C@H](CO)O2)c(=O)[nH]c1=O`: in the data set with CCRF-CEM [2], the Toxicity entry is on record as “Not Active”.
